# Measured values reported in US20190298674A1 (Ovid Therapeutics, Inc., priority 2018, published 2019).
# Assays:
# [1] = in vivo; conditions: plasma
# Text: (§1) “PK” refers to the pharmacokinetic profile. Cmax is defined as the highest plasma drug concentration estimated during an experiment (ng/ml). Tmax is defined as the time when Cmax is estimated (min). AUC0-∞ is the total area under the plasma drug concentration-time curve, from drug administration until the drug is eliminated (ng·hr/ml). The area under the curve is governed by clearance. Clearance is defined as the volume of blood or plasma that is totally cleared of its content of drug per unit time (ml/min).
# [2] = plasma pharmacokinetics; conditions: in the dose range 5 mg-500 mg
# Text: as §1
smiles,measurement,setting,value
N[C@H]1C[C@@H](C(=O)O)CC1=C(F)F,half-life,[1],4 to 6 h
same,AUCs dose proportionality,[2],greater than proportional increase
